From patent US20150119410A1, “BIOMARKERS OF RESPONSE TO NAE INHIBITORS” (MILLENNIUM PHARMACEUTICALS, INC., priority 2011, published 2015)

Columns and labels:
Format in all cases: cell-based
HCT-116 TP53 +/+ cells = assay: ATPlite viability assay, isogenic HCT-116 pair; details: Homo sapiens, HCT-116 TP53 +/+ (wild-type), 72 h, read-out: LC50 (the source's name)
Method: (§1) Paired isogenic HCT-116 cell lines that were either wild-type (+/+) or null (−/−) for p53 expression (HD PAR-018 and HD 104-001, respectively, Horizon Discovery Ltd) were seeded in separate 384-well plates and then treated the following day with a titration of MLN4924 triplicate, and incubated for 24, 36, 48 or 72 h, with seeding densities of 1600, 1200, 800, and 400 cells/well, respectively. Following compound incubation, viability of HCT-116 cells was assessed by ATPlite assay (Perkin Elmer) according to the manufacturer's instructions using the LEADseeker imaging system (GE Healthcare).

HCT-116 TP53 −/− cells = assay: ATPlite viability assay, isogenic HCT-116 pair
Method: as §1

T84 = assay: Cell line panel 1 viability screen; details: Homo sapiens; T84 (intestine); 2 μM MLN4924, 72 hours; DMSO control about 1
Procedure, shortened: (§2)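 Viability was expressed as POC relative to DMSO, where about 1 means no activity and 0 means death of all cells. Treatment was 72 h with MLN4924 at 20 nM, 200 nM and 2 μM, with read-out by nucleic acid stain fluorescence.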

CAL-62 = assay: Cell line panel 1 viability screen; details: CAL-62 (thyroid)
Procedure, shortened: as §2

RCM-1 = assay: Cell line panel 1 viability screen
Procedure, shortened: as §2

p21 = assay: Western blot of p21 in TP53 −/− HCT-116 cells; details: TP53 −/− HCT-116 cells treated with MLN4924

## NS(=O)(=O)OC[C@@H]1C[C@@H](n2ccc3c(N[C@H]4CCc5ccccc54)ncnc32)C[C@@H]1O [MLN4924, ((1S,2S,4R)-4-{4-[(1S)-2,3-dihydro-1H-inden-1-ylamino]-7H-pyrrolo[2,3-d]pyrimidin-7-yl}-2-hydroxycyclopentyl)methyl sulphamate]
HCT-116 TP53 +/+ cells
  CC50: 21 ± 1 nM
HCT-116 TP53 −/− cells; Homo sapiens, HCT-116 TP53 −/− (null), 72 h, ATPlite, read-out: LC50 (the source's name)
  CC50: 74 ± 5 nM
HCT-116 TP53 −/− cells; TP53 −/− versus TP53 +/+ HCT-116, 24, 36, and 48 h
  cell death at the highest drug concentrations: less cell death
T84
  viability at 2 µM: 57.8%
CAL-62; NF2 mutant
  Phenotype: sensitive (median POC values of less than the median value of all POC's recorded in the panel (<0.34) indicated sensitivity)
CAL-62; Homo sapiens, 2 μM MLN4924, 72 hours, DMSO control about 1
  viability at 2 µM: 6.76%
RCM-1; Homo sapiens, RCM-1 (intestine), 2 μM MLN4924, 72 hours, DMSO control about 1
  viability at 2 µM: 76.7%
RCM-1; RCM-1 (Intestine), FBXW7 mutant
  Phenotype: resistant (values greater than the 3rd quartile of all POC's in the panel (>0.75) insensitivity or resistance)
p21
  p21 level (Western blots): still up-regulated
